For 13 compounds, EC50 results are on record in patent US12577206B2 (BRISTOL-MYERS SQUIBB COMPANY, priority 2020, dated 2026).

The target in assay [1] is T1, human FPR2 (Homo sapiens, UniProt P25090).
T1 sequence (P25090 1-351): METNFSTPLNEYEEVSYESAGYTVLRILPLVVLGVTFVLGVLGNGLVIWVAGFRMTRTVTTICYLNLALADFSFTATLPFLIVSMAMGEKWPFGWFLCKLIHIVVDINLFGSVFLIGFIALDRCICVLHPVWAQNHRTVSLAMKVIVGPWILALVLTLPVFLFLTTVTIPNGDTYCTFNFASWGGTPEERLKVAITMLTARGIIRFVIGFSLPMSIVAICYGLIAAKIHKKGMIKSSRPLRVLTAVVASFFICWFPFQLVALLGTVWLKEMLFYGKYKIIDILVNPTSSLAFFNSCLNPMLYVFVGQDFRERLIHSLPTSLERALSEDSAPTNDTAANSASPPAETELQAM
Briefly: FPR2 cyclic adenosine monophosphate (cAMP) assay. In kind it is cell-based. Particulars: CHO cells overexpressing human FPR2; forskolin 5 μM; inhibition of cAMP production; HTRF; read-out: hFPR2 cAMP2 EC50. The gist of the method:
(§1)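 CHO/hFPR1 4,000 cells/well, forskolin 10 μM final; CHO/hFPR2 2,000 cells/well, forskolin 5 μM final. IBMX 200 μM, DMSO 1%, DPBS + Ca/Mg + 0.1% BSA, 30 min rt. HTRF cAMP; 4-PL fit.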
For orientation: Changes in cAMP serve as a functional read-out for many G protein-coupled receptors.

The target in assay [2] is T2, human FPR1 (Homo sapiens, UniProt P21462).
T2 sequence (P21462 1-350): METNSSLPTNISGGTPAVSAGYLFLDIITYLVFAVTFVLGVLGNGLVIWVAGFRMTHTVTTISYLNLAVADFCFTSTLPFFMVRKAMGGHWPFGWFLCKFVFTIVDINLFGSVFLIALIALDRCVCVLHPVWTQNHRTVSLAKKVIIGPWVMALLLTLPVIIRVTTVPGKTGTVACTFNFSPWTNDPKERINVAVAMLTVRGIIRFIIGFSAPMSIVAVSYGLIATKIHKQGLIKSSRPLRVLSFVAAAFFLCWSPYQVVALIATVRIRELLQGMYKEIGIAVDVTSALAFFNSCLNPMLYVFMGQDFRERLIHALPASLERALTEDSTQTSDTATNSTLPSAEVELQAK
The assay is described as follows: FPR1 cyclic adenosine monophosphate (cAMP) assay. In kind it is cell-based. Particulars: CHO cells overexpressing human FPR1; forskolin 10 μM; inhibition of cAMP production; HTRF; read-out: hFPR1 cAMP2 EC50. The gist of the method:
as §1

As a reminder, the EC50 is the concentration giving half of the maximal effect. For `COc1cc(OCC(C)(F)F)nc(-n2c(=O)c(NC(=O)c3ccc(OC(F)F)cc3)c(-c3c(F)cc(OC)cc3F)n2C)c1` [Example 387, N-(5-(2,6-Difluoro-4-methoxyphenyl)-2-(6-(2,2-difluoropropoxy)-4-methoxypyridin-2-yl)-1-methyl-3-oxo-2,3-dihydro-1H-pyrazol-4-yl)-4-(difluoromethoxy)benzamide], the EC50 in assay [1] is 8 nM; in assay [2], greater than 10000 nM.

Take `COc1ccc(-c2c(NC(=O)c3ccc(OC(F)F)cc3)c(=O)n(-c3ncccc3C(F)(F)F)n2C)c(F)c1` [Example 263, 4-(difluoromethoxy)-N-[5-(2-fluoro-4-methoxyphenyl)-1-methyl-3-oxo-2-[3-(trifluoromethyl)pyridin-2-yl]-2,3-dihydro-1H-pyrazol-4-yl]benzamide]: the EC50 in assay [1] worked out at 8 nM; in assay [2] it was 1700 nM.

With `COc1cc(F)c(-c2c(NC(=O)c3ccc(OC(F)F)cc3)c(=O)n(-c3nc(CO)ccc3C(F)(F)F)n2C)c(F)c1` [Example 195, N-[5-(2,6-difluoro-4-methoxyphenyl)-2-[6-(hydroxymethyl)-3-(trifluoromethyl)pyridin-2-yl]-1-methyl-3-oxo-2,3-dihydro-1H-pyrazol-4-yl]-4-(difluoromethoxy)benzamide], the values for the EC50 in assay [1] and in assay [2] were 14 nM and greater than 10000 nM, respectively.

With `COc1cc(F)c(-c2c(NC(=O)c3ccc(OC(F)F)cc3)c(=O)n(-c3cccc(OC(F)F)c3)n2C)c(F)c1` [Example 177, N-[5-(2,6-difluoro-4-methoxyphenyl)-2-[3-(difluoromethoxy)phenyl]-1-methyl-3-oxo-2,3-dihydro-1H-pyrazol-4-yl]-4-(difluoromethoxy)benzamide], the EC50 in assay [1] and in assay [2] was 3 nM each time.

Take `COc1cc(F)c(-c2c(NC(=O)c3ccc(OC(F)F)cc3)c(=O)n(-c3nc(OC)ccc3C#N)n2C)c(F)c1` [Example 185, N-[2-(3-cyano-6-methoxypyridin-2-yl)-5-(2,6-difluoro-4-methoxyphenyl)-1-methyl-3-oxo-2,3-dihydro-1H-pyrazol-4-yl]-4-(difluoromethoxy)benzamide]: the figures for the EC50 in assay [1] and in assay [2] were 5 nM and greater than 10000 nM, respectively.

In the case of `COc1cc(F)c(-c2c(NC(=O)c3ccc(OC(F)F)cc3)c(=O)n(-c3cc(Cl)cc(C(=O)N(C)C)c3)n2C)c(F)c1` [Example 126, 3-chloro-5-[3-(2,6-difluoro-4-methoxyphenyl)-4-[4-(difluoromethoxy)benzamido]-2-methyl-5-oxo-2,5-dihydro-1H-pyrazol-1-yl]-N,N-dimethylbenzamide], the EC50 in assay [1] was found to be 9 nM; in assay [2], 1200 nM.

Turning to `COc1cc(F)c(-c2c(NC(=O)c3ccc(OC(F)F)cc3)c(=O)n(-c3nc(NCC4(CO)CCC4)ccc3C(F)(F)F)n2C)c(F)c1` [Example 290, N-[5-(2,6-difluoro-4-methoxyphenyl)-2-[6-({[1-(hydroxymethyl)cyclobutyl]-methyl}amino)-3-(trifluoromethyl)pyridin-2-yl]-1-methyl-3-oxo-2,3-dihydro-1H-pyrazol-4-yl]-4-(difluoromethoxy)benzamide], the EC50 was 1 nM in assay [1] and greater than 10000 nM in assay [2].

Regarding `COc1cc(F)c(-c2c(NC(=O)c3ccc(OC(F)(F)F)cc3)c(=O)n(-c3cccc(-n4ccc(C)n4)n3)n2C)c(F)c1` [Example 70, N-[5-(2,6-difluoro-4-methoxyphenyl)-1-methyl-2-[6-(3-methyl-1H-pyrazol-1-yl)pyridin-2-yl]-3-oxo-2,3-dihydro-1H-pyrazol-4-yl]-4-(trifluoromethoxy)benzamide], the EC50 in assay [1] was determined as 3 nM; in assay [2], 5 nM.

As for `COc1cc(F)c(-c2c(NC(=O)c3ccc(OC(F)F)cc3)c(=O)n(-c3cc(OC)ccc3C#N)n2C)c(F)c1` [Example 183, N-[2-(2-cyano-5-methoxyphenyl)-5-(2,6-difluoro-4-methoxyphenyl)-1-methyl-3-oxo-2,3-dihydro-1H-pyrazol-4-yl]-4-(difluoromethoxy)benzamide], the EC50 in assay [1] was found to be 11 nM; in assay [2], 3900 nM.

Turning to `COc1cc(F)c(-c2c(NC(=O)c3ccc(OC(F)F)cc3)c(=O)n(-c3nc(C4CCC4)ccc3C#N)n2C)c(F)c1` [Example 191, N-(2-(3-cyano-6-cyclobutylpyridin-2-yl)-5-(2,6-difluoro-4-methoxyphenyl)-1-methyl-3-oxo-2,3-dihydro-1H-pyrazol-4-yl)-4-(difluoromethoxy)benzamide], the EC50 is 2 nM in assay [1] and 4800 nM in assay [2].

For `COc1cc(OC2CCOC2)nc(-n2c(=O)c(NC(=O)c3ccc(OC(F)F)cc3)c(-c3c(F)cc(OC)cc3F)n2C)c1` (centres unmarked) [Example 356, N-(5-(2,6-Difluoro-4-methoxyphenyl)-2-(4-methoxy-6-((tetrahydrofuran-3-yl)oxy)pyridin-2-yl)-1-methyl-3-oxo-2,3-dihydro-1H-pyrazol-4-yl)-4-(difluoromethoxy)benzamide], the EC50 is 5 nM in assay [1] and greater than 10000 nM in assay [2].

On to `COc1cc(F)c(-c2c(NC(=O)c3ccc(OC(F)F)cc3)c(=O)n(-c3nc(C(F)(F)F)ccc3OCC3CCOC3)n2C)c(F)c1` (centres unmarked) [Example 369, N-(5-(2,6-Difluoro-4-methoxyphenyl)-1-methyl-3-oxo-2-(3-((tetrahydrofuran-3-yl)methoxy)-6-(trifluoromethyl)pyridin-2-yl)-2,3-dihydro-1H-pyrazol-4-yl)-4-(difluoromethoxy)benzamide], for which the EC50 is 5 nM in assay [1] and greater than 10000 nM in assay [2].

Turning to `COc1cc(F)c(-c2c(NC(=O)c3ccc(OC(F)F)cc3)c(=O)n(-c3cnc4ccccc4n3)n2C)c(F)c1` [Example 64, N-[5-(2,6-difluoro-4-methoxyphenyl)-1-methyl-3-oxo-2-(quinoxalin-2-yl)-2,3-dihydro-1H-pyrazol-4-yl]-4-(difluoromethoxy)benzamide], the EC50 in assay [1] came out at 11 nM; in assay [2] it was 800 nM.
